Results reported in ChEMBL document CHEMBL1133380, “3-Imidazolylmethylaminophenylsulfonyltetrahydroquinolines, a novel series of farnesyltransferase inhibitors” (Bioorg Med Chem Lett, 2000).

Target: Protein farnesyltransferase (Homo sapiens, UniProt P49354+P49356)
Assay: Inhibition of Farnesyltransferase
Assay type: protein-complex assay

SMILES	IC50 [nM]
CSCC[C@H](NC(=O)[C@@H]1Cc2ccccc2CN1C(=O)[C@@H](NC[C@@H](N)CS)C(C)C)C(=O)O	0.6
CSCC[C@H](NC(=O)[C@@H]1Cc2ccccc2CN1C(=O)[C@@H](NCCc1cnc[nH]1)C(C)C)C(=O)O	0.8
N#Cc1cccc(CN(Cc2c[nH]cn2)c2cccc(S(=O)(=O)N3CCCc4ccccc43)c2)c1	570
O=S(=O)(c1cccc(N(Cc2cnc[nH]2)Cc2cnc[nH]2)c1)N1CCCc2ccccc21	130
CCCCOc1ccc(S(=O)(=O)N2CCCc3ccccc32)cc1N(Cc1cnc[nH]1)Cc1cnc[nH]1	480
O=S(=O)(c1cccc(NCc2cnc[nH]2)c1)N1CCCc2ccccc21	15000
